How the values were obtained:
Type in all cases: physicochemical
[1] = Clotrimazole release rate from films; conditions: Clotrimazole-1 film
Protocol: Determining the clotrimazole release rate from the films was conducted by first placing the films in 350 ml glass vessels, containing Trizma base buffer (50 mM) with 0.2% SLS (sodium lauryl sulphate) at pH=5.0 and 6.8 and 50 cpm, at 37° C.
(§1) Then, 1 cc samples were taken from the glass vessels at pre-determined intervals (each hour from 1 to 8 hrs). The released clotrimazole concentration was measured spectrophotometrically at 206 nm (Uvikon 933: Kontron Instruments). The concentration of the CHX was calculated according to a reference curve.
In a different experiment, the films were kept at a pH 5.0 buffer for 2 hours, then kept at a pH 6.8 buffer for 2 hours, then at a pH 5.0 buffer for 2 hours and again at a pH 6.8 buffer for 2 hours. Samples were taken at similar intervals.

[2] = CHX release rate from films; conditions: CHX-1 film; phosphate buffer, 37° C., 1-8 hours; FIG. 3
Protocol: Determining the CHX release rate from the films was conducted by first placing the films in 100 ml glass vessels, containing phosphate buffer at pH=5.0 and 6.8 and 50 cpm, at 37° C.
Then, 1 cc samples were taken from the glass vessels at pre-determined intervals (each hour from 1 to 8 hrs).
The released CHX concentration was measured spectrophotometrically at 260 nm (Uvikon 933: Kontron Instruments). The concentration of the CHX was calculated according to a reference curve.
(§2) In a different experiment, the films were kept at a pH 5.0 buffer for 2 hours, then at a pH 6.8 buffer for 2 hours, then at a pH 5.0 buffer for 2 hours and again at a pH 6.8 buffer for 2 hours. Samples were taken at similar intervals.

[3] = Triclosane release rate from films; conditions: Tric-1 film; Trizma base buffer 50 mM +10% SLS, 37° C.; pH 5.0 / 6.8 / 5.0 / 6.8, 2 hours each; FIG. 6
Protocol: Determining the triclosane release rate from the films was conducted by first placing the films in 100 ml glass vessels, containing Trizma base buffer (50 mM, +10% SLS (sodium lauryl sulphate) at pH=5.0 and 6.8 at 50 rpm, at 37° C.
as §1, with “Then, 2” for “Then, 1”, “released triclosane” for “released clotrimazole”, “at 280” for “at 206”, “the triclosane” for “the CHX”
as §2

Compound: Clc1ccccc1C(c1ccccc1)(c1ccccc1)n1ccnc1 [clotrimazole, Clotrimazole]
- clotrimazole release rate (as % of the initial amount in film), pH 5.0 compared with pH 6.8 ([1]; Trizma base buffer 50 mM with 0.2% SLS, 37° C., 1-8 hours, FIG. 1): much faster
- effect of pH 6.8 on clotrimazole release rate, pH change profile ([1]; pH 5.0 / 6.8 / 5.0 / 6.8, 2 hours each, FIG. 2): retards the rate of release

Compound: CC(=O)O.CC(=O)O.NC(=N\CCCCCC/N=C(N)/N=C(\N)Nc1ccc(Cl)cc1)/N=C(\N)Nc1ccc(Cl)cc1 [CHX, Chlorhexidine-Diacetate]
- CHX release rate (as % of the initial amount in film), pH 5.0 compared with pH 6.8 [2]: higher release rate at pH 5.0

Compound: Oc1cc(Cl)ccc1Oc1ccc(Cl)cc1Cl [triclosane, Triclosane]
- triclosane release rate at pH 5.0 compared with pH 6.8, pH change profile [3]: significantly faster

Source: US20190099523A1, “FILM-FORMING COMPOSITION FOR A PH-DEPENDANT SUSTAINED RELEASE OF THE ACTIVE AGENT” (YISSUM RESEARCH DEVELOPMENT COMPANY OF THE HEBREW …, priority 2011, published 2019)
